The structures appear in SMILES notation.

The data set is described as follows: stability of MMST in water without stabilizers. The format is physicochemical. Conditions: stability declines at higher concentrations. The procedure:
In a preferred embodiment of a composition according to the first aspect of the invention, the composition comprises monomethylsilanetriol (MMST). Monomethylsilanetriol (MMST, MeSiOH3 or Si(OH)3CH3) is an organosilanol. […] This organosilanol is highly bioavailable. […] MMST can advantageously be used without stabilizers in silicon equivalent concentrations up to 300 mg/l. The stability of MMST is dependent on concentration and declines at higher concentrations. The stability can further be enhanced by the use of stabilizing agents. In a preferred embodiment the stabilizing agent is based on phenol or polyphenol as described above. The same reasoning applies, mutatis mutandis, with respect to stabilizing effect on the free hydroxyl groups.

For the compound `C[Si](O)(O)O` [MMST, monomethylsilanetriol], the “silicon equivalent concentration usable without stabilizers” value is “up to 300 mg/l”.
